The text below walks through data of the METLIN SMRT retention time set (Domingo-Almenara et al. 2019).

This data set in a line: gradient 5% acetonitrile 3 min, to 50% in 2 min, to 85% in 15 min, held 3 min, 100 µL/min. To be noted: column: Zorbax Extend-C18 2.1 x 50 mm; eluents: water / acetonitrile, 0.1% formic acid. The gist of the method:
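Standards, all pure, were combined into mixtures of ~100 molecules and run at 100 μL/min on a Zorbax Extend-C18 column (2.1 × 50 mm, 1.8 μm) with water and acetonitrile, each containing 0.1% formic acid. A coupled quadrupole time-of-flight mass spectrometer operated in positive and negative ionization mode. Retention time values come from computationally picked adduct peaks, each inspected manually.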
`Cc1oc2c(c1C(=O)Nc1ccc(Br)cc1)C1=NCCN1C=N2` displayed an RP-LC retention time of 644 s.

As for `Cc1cccc(N2C(=O)CN(S(C)(=O)=O)CC2(C)C(=O)NCc2ccc(Cl)cc2)c1C` (stereo not given), the RP-LC retention time was found to be 903 s. Consider `CCc1cccc(CC)c1NC(=O)N1Cc2[nH]nc(NC(=O)c3ccc(N4CCN(C)CC4)cc3)c2C1`, for which the RP-LC retention time was 664 s. `CCOC(=O)COC(=O)c1cn(-c2ccc(OC)cc2)c(=O)c2ccccc12` returned an RP-LC retention time of 1010 s. As for `Cc1ccc(C(=O)Nc2nccnc2C(=O)NC2CCCC2)cc1`, the RP-LC retention time was found to be 1040 s. `CCOc1ccc2ncc(C(=O)c3ccccc3)c(N3CCN(CC)CC3)c2c1` registered an RP-LC retention time of 591 s.

The compound `Cc1cc(Cl)ccc1S(=O)(=O)N1CCC(OC2CCN(CC3CC3)C2=O)CC1` (stereo not given) showed an RP-LC retention time of 975 s. Take `Cc1ccc(C)c(CN2CCCN(CC(=O)NC(C)CCc3ccccc3)S2(=O)=O)c1` (stereo not given): the RP-LC retention time came out at 1140 s.

`COc1ccc(S(=O)(=O)N2CCC(c3noc(-c4ccc(Cl)cc4)n3)CC2)cc1`: the RP-LC retention time stood at 1140 s. `CC(=O)N1CCC(C(=O)Nc2ncc(C)s2)CC1` came in with an RP-LC retention time of 617 s. Then `CCC(=O)Nc1ccc(CCc2nc3ccc(C(=O)NC(C)c4ccccc4)cc3[nH]2)cc1` (stereo not given), with 658 s; and `CCCN1C(=O)CN(S(=O)(=O)c2ccccc2)CC1(C)C(=O)NCc1ccc(F)cc1` (stereo not given), with 827 s; and `CCOC(=O)C(CC)n1cnc2c(cnn2-c2ccccc2)c1=O` (stereo not given), with 857 s. Regarding `O=C(Cc1ccc(Cl)cc1)NCc1nc(-c2ccc(-c3csc(C4CC4)n3)cc2)no1`, the RP-LC retention time was 1110 s.

As to `COc1ccc(OC)c(S(=O)(=O)N2C[C@@H](F)C[C@H]2C(=O)N2CCOCC2)c1`, the RP-LC retention time is 906 s. Then `Cc1csc(-c2cc(S(=O)(=O)NCc3ccccc3Cl)c(C)s2)n1`, with 1050 s. The result for `CC1=NS(=O)(=O)N(Cc2ccccc2)C=C1C(=O)OCc1ccc(Br)cc1` reads 1200 s; that for `Cc1ccc(-c2nc3ccccc3[nH]2)cc1NC(=O)C1CCCO1` (stereo not given), 615 s; that for `CCn1c(=O)c(N2CCN(C(=O)NC3CCCCC3)CC2)nc2ccccc21`, 919 s. `COc1ccc(NC(=O)c2cnc(N3CCN(c4ccc(F)cc4)CC3)nc2N)cc1` had an RP-LC retention time of 776 s. As for `CCn1cc(S(=O)(=O)N[C@@H]2CN(Cc3ccccn3)C[C@H]2CN(C)C)cn1`, the RP-LC retention time amounted to 524 s. Turning to `C=CC(=O)Nc1cc2c(Nc3ccc(F)c(Cl)c3)ncnc2cc1OCCCN1CCOCC1`, the RP-LC retention time is 630 s. In the case of `COc1ccc(C(=O)N2CCC3(C2)C(=O)N(C)c2ccc(OC)cc23)c(OC)c1` (stereo not given), the RP-LC retention time came to 760 s. The result for `CCOc1ccc(-c2cn3ccn(-c4ccc(C(C)C)cc4)c(=O)c3n2)cc1` reads 1030 s; that for `CCOC(=O)C1CCCN(C(=O)C2c3ccccc3C(=O)N3CCc4cc(OC)c(OC)cc4C23)C1` (stereo not given), 766 s; that for `O=C(Nc1cccc(Cl)c1Cl)C1(c2ccc(F)cc2)CC1`, 1280 s. In turn, `Cc1cccc(S(=O)(=O)NCc2c(-c3ccccc3)nc3sc(C)nn23)c1` gave an RP-LC retention time of 802 s. `CC1CN(C(=O)CCC(=O)NCCCN2CCC(N3CCCCC3)CC2)c2ccccc2O1` (stereo not given) returned an RP-LC retention time of 573 s. As to `CSc1cccc(NC(=O)N2CCc3nc[nH]c3C2)c1`, the RP-LC retention time worked out at 590 s.

The compound `O=C(Cn1c(N2CCCCC2)nc2ccccc2c1=O)NCc1cccc(Cl)c1` gave an RP-LC retention time of 659 s. Consider `Cc1cc(C(=O)N2CCCCC2)c2c(=O)n(CC(=O)Nc3ccc(F)cc3F)c(=O)n(C)c2n1`, for which the RP-LC retention time came out at 816 s. `O=C(C1CCCN(c2nnc3ccc(Cl)cn23)C1)N1CCN(C2CCCCC2)CC1` (stereo not given) registered an RP-LC retention time of 525 s. The compound `Cn1cc(C(=O)N2CCC(c3noc(-c4ccccc4)n3)C2)cn1` (stereo not given) had an RP-LC retention time of 712 s.

As to `CCC(=O)NCc1ccc(-c2nc(C(C)C)cs2)cc1`, the RP-LC retention time came out at 873 s. The result for `COc1ccc(-c2ncccc2CNS(=O)(=O)c2ccc(C)cc2C)cc1` reads 715 s; that for `CCOC(=O)c1ccccc1NC(=O)Cn1nc2c(N3CCSCC3)nccn2c1=O`, 1010 s. Compound `COc1ccc(-c2nnc(-c3cc(S(=O)(=O)NC(C)(C)CO)ccc3Cl)o2)cc1` registered an RP-LC retention time of 837 s. Then `CC1CCN(C(=O)C2=NN(Cc3nc(C4CC4)no3)c3ccccc3S2(=O)=O)CC1`, with 904 s. `CCOC(=O)c1sc(NC(=O)Cn2nc3c(cc2=O)CCCC3)nc1C` registered an RP-LC retention time of 764 s.

In turn, `CCN1c2ccc(F)cc2C(=O)NC12CCN(C(=O)c1cccc(C)c1)CC2` registered an RP-LC retention time of 827 s. Regarding `NC(=O)Cc1csc(SCC(=O)c2ccc3c(c2)OCO3)n1`, the RP-LC retention time amounted to 648 s. The result for `Cc1ccc(-n2nnnc2-c2cccnc2)cc1` reads 649 s; that for `CCN1CCC(CCNC(=O)c2cc3c(s2)N(CC)CCCC3)CC1`, 685 s.

`COc1ccc(N2C(=O)C3N=NN(Cc4nc(-c5ccccc5)no4)C3C2=O)cc1` (stereo not given): the RP-LC retention time was 912 s. `CCC1Oc2ccc(S(=O)(=O)N3CCC(C(=O)NC4CC4)CC3)cc2NC1=O` (stereo not given) had an RP-LC retention time of 688 s. Compound `Cc1cc(-c2nnc(-c3ccccc3)o2)c(C)n1CC(=O)NCc1cccs1` had an RP-LC retention time of 900 s. For `CCCS(=O)(=O)N1CCCC(Cn2c(C)nc3cccnc32)C1` (stereo not given), the RP-LC retention time came out at 572 s.

Compound `Cc1cccc(CN2CC(n3cc(COc4ccc(F)cc4)nn3)C2)c1` gave an RP-LC retention time of 605 s.

`COc1cccc(Cc2nc(Cn3c(C)nc4ccccc4c3=O)no2)c1` showed an RP-LC retention time of 812 s. In the case of `CC(=O)N1CC(c2nnc(C(C)C)o2)C2(CCOCC2)C1` (stereo not given), the RP-LC retention time amounted to 571 s. Then `Cc1c(-c2noc(-c3ccc(F)cc3)n2)nnn1-c1ccccc1`, with 994 s; and `Cc1cc(C)nc(SCC(=O)Nc2nc(-c3ccccc3)cs2)n1`, with 1020 s.

As to `COc1ccc(Cl)cc1NC(=O)Cn1c(C)ncc(C(=O)NC2CCCC2)c1=O`, the RP-LC retention time is 791 s. `O=C(NCc1cccs1)C1CCCN(c2nc3ccsc3c(=O)n2-c2ccc(F)cc2)C1` (stereo not given): the RP-LC retention time was 843 s. Then `CC(=O)N1CCc2cc(N3CC(C(=O)Nc4ccc(C(F)(F)F)cc4)CC3=O)ccc21` (stereo not given), with 798 s; and `CCC(C)NC(=O)CCCn1c(=O)c2cccn2c2ccccc21` (stereo not given), with 760 s; and `O=C(NCCC1=CCCCC1)C1CCCN(c2ncnc3c2oc2ccccc23)C1` (stereo not given), with 872 s.

Consider `CCCS(=O)(=O)c1nc2ccc(NS(=O)(=O)c3cc(F)ccc3F)cc2s1`, for which the RP-LC retention time is 918 s.

`CCc1nc2c(NC(=O)c3sccc3C)cccn2n1`: the RP-LC retention time is 831 s. Take `CC(C)NC(=O)NC1CCN(c2ccc(F)cc2)C1=O` (stereo not given): the RP-LC retention time worked out at 659 s. `CC(C)Cn1nc2ccc(S(=O)(=O)N3CCC(C)CC3)cn2c1=O` showed an RP-LC retention time of 862 s.

`O=C(Cn1cccc1-c1nnc(-c2ccccc2)o1)N1CCN(c2ccc(F)cc2)CC1` returned an RP-LC retention time of 996 s. Then `COc1ccc(NC(=O)Cc2csc(NC(=O)c3ccc(=O)[nH]c3)n2)cc1Cl`, with 637 s. `CN(C)c1cccc(F)c1C(=O)NC(=O)Nc1ccc(Cl)cc1` gave an RP-LC retention time of 990 s. Take `Cc1cc(NS(=O)(=O)c2cc3n(c2)CCCNC3=O)ccc1Cl`: the RP-LC retention time worked out at 711 s. On to `CNC(=O)c1sc(-c2ccccc2)nc1C`, for which the RP-LC retention time was found to be 726 s. Turning to `Cc1nnc2ccc(N3CCC(C(=O)N4CCN(c5ncccn5)CC4)CC3)nn12`, the RP-LC retention time worked out at 646 s.

For `O=C(c1ccco1)N1CCC(OCc2nc(C3CC3)no2)CC1`, the RP-LC retention time was 732 s. As for `COC(=O)c1cccc(C(=O)Nc2ccccc2C)n1`, the RP-LC retention time was found to be 869 s. `COc1ccc(-c2cc3c4nnc(SCC(=O)NCc5ccc(SC)cc5)n4ccn3n2)cc1` had an RP-LC retention time of 832 s. The result for `COc1ccc(C(C)NC(=O)C2CCN(c3cncnc3N3CCOCC3)CC2)cc1` (stereo not given) reads 601 s; that for `CS(=O)(=O)c1ccc(C(=O)N2CCN(c3ccccc3)CC2)cc1`, 683 s; that for `O=S(=O)(Nc1cccn2ncnc12)c1ccc(Cl)cc1`, 770 s. In turn, `CCc1ccc(N2CC(c3noc(-c4ccc5c(c4)OCO5)n3)CC2=O)cc1` (stereo not given) registered an RP-LC retention time of 1060 s. Compound `Cc1ccc(Nc2c(-c3ccc(Cl)cc3)nc3cnccn23)c(C)c1` displayed an RP-LC retention time of 1080 s. As for `Cc1oc(C2CCN(S(=O)(=O)c3ccc(F)cc3)CC2)nc1C(=O)N1CCOCC1`, the RP-LC retention time stood at 789 s.

The compound `Cc1ccc(-c2noc(Cc3nc(-c4ccc5c(c4)OCO5)cs3)n2)cc1` displayed an RP-LC retention time of 1220 s. Turning to `CCCC1(CO)CCCN1C(=O)c1nn(C)c2ccccc12` (stereo not given), the RP-LC retention time stood at 857 s.

Take `COc1cccc(CNC(=O)C2CCCN(C(=O)C3Sc4ccccc4NC3=O)C2)c1` (stereo not given): the RP-LC retention time was 737 s.

On to `Cc1nc(CCNC(=O)[C@H]2CCCN2C(=O)c2cccc(F)c2)cs1`, for which the RP-LC retention time was determined as 642 s.
